Assay results as given in PubChem BioAssay (NCI).
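Assay format: 96-well plates, 48-hour exposure. TGI denotes the concentration required for complete inhibition of growth.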

Key:
Experiment in all cases: growth of human tumour cells (NCI), 48 h
[1] = tested on: 786-0 renal
[2] = tested on: A498 renal
[3] = tested on: A549 NSCLC
[4] = tested on: ACHN renal
[5] = tested on: CAKI-1 renal
[6] = tested on: CCRF-CEM leukemia
[7] = tested on: COLO 205 colon
[8] = tested on: DU-145 prostate
[9] = tested on: EKVX NSCLC
[10] = tested on: HCC-2998 colon
[11] = tested on: HCT-116 colon
[12] = tested on: HCT-15 colon
[13] = tested on: HL-60(TB) leukemia
[14] = tested on: HOP-62 NSCLC
[15] = tested on: HOP-92 NSCLC
[16] = tested on: HT29 colon
[17] = tested on: IGROV1 ovarian
[18] = tested on: K-562 leukemia
[19] = tested on: KM12 colon
[20] = tested on: LOX IMVI melanoma
[21] = tested on: M14 melanoma
[22] = tested on: MALME-3M melanoma
[23] = tested on: MCF7 breast
[24] = tested on: MDA-MB-231 breast
[25] = tested on: MDA-MB-435
[26] = tested on: MDA-N
[27] = tested on: MOLT-4 leukemia
[28] = tested on: NCI-H226 lung
[29] = tested on: NCI-H23 lung
[30] = tested on: NCI-H460 lung
[31] = tested on: NCI-H522 lung
[32] = tested on: NCI/ADR-RES ovarian
[33] = tested on: OVCAR-3 ovarian
[34] = tested on: OVCAR-4 ovarian
[35] = tested on: OVCAR-8 ovarian
[36] = tested on: PC-3 prostate
[37] = tested on: RPMI-8226 leukemia
[38] = tested on: RXF 393 renal
[39] = tested on: SF-268 CNS
[40] = tested on: SF-295 CNS
[41] = tested on: SF-539 CNS
[42] = tested on: SK-MEL-2 melanoma
[43] = tested on: SK-MEL-28 melanoma
[44] = tested on: SK-MEL-5 melanoma
[45] = tested on: SK-OV-3 ovarian
[46] = tested on: SN12C renal
[47] = tested on: SNB-19 CNS
[48] = tested on: SNB-75 CNS
[49] = tested on: SR leukemia
[50] = tested on: SW-620 colon
[51] = tested on: T-47D breast
[52] = tested on: TK-10 renal
[53] = tested on: U251 CNS
[54] = tested on: UACC-257 melanoma
[55] = tested on: UACC-62 melanoma
[56] = tested on: UO-31 renal
[57] = tested on: HS 578T breast
[58] = tested on: OVCAR-5 ovarian

## CSC(N)=Nc1cccc2ccccc12
[1]
  TGI: > 10 µM
[2]
  TGI: > 10 µM
[3]
  TGI: > 10 µM
[4]
  TGI: > 10 µM
[5]
  TGI: > 10 µM
[6]
  TGI: > 10 µM
[7]
  TGI: > 10 µM
[8]
  TGI: > 10 µM
[9]
  TGI: > 10 µM
[10]
  TGI: > 10 µM
[11]
  TGI: > 10 µM
[12]
  TGI: > 10 µM
[13]
  TGI: > 10 µM
[14]
  TGI: > 10 µM
[15]
  TGI: > 10 µM
[16]
  TGI: > 10 µM
[17]
  TGI: > 10 µM
[18]
  TGI: > 10 µM
[19]
  TGI: > 10 µM
[20]
  TGI: > 10 µM
[21]
  TGI: > 10 µM
[22]
  TGI: > 10 µM
[23]
  TGI: > 10 µM
[24]
  TGI: > 10 µM
[25]
  TGI: > 10 µM
[26]
  TGI: > 10 µM
[27]
  TGI: > 10 µM
[28]
  TGI: > 10 µM
[29]
  TGI: > 10 µM
[30]
  TGI: > 10 µM
[31]
  TGI: > 10 µM
[32]
  TGI: > 10 µM
[33]
  TGI: > 10 µM
[34]
  TGI: > 10 µM
[35]
  TGI: > 10 µM
[36]
  TGI: > 10 µM
[37]
  TGI: > 10 µM
[38]
  TGI: > 10 µM
[39]
  TGI: > 10 µM
[40]
  TGI: > 10 µM
[41]
  TGI: > 10 µM
[42]
  TGI: > 10 µM
[43]
  TGI: > 10 µM
[44]
  TGI: > 10 µM
[45]
  TGI: > 10 µM
[46]
  TGI: > 10 µM
[47]
  TGI: > 10 µM
[48]
  TGI: > 10 µM
[49]
  TGI: > 10 µM
[50]
  TGI: > 10 µM
[51]
  TGI: > 10 µM
[52]
  TGI: > 10 µM
[53]
  TGI: > 10 µM
[54]
  TGI: > 10 µM
[55]
  TGI: > 10 µM
[56]
  TGI: > 10 µM

## CC(C)(NO)/C(=N\O)c1ccco1
[1]
  TGI: > 100 µM
[3]
  TGI: > 100 µM
[4]
  TGI: > 100 µM
[5]
  TGI: > 100 µM
[7]
  TGI: > 100 µM
[8]
  TGI: > 100 µM
[9]
  TGI: > 100 µM
[10]
  TGI: > 100 µM
[11]
  TGI: > 100 µM
[12]
  TGI: > 100 µM
[14]
  TGI: > 100 µM
[15]
  TGI: > 100 µM
[57]
  TGI: > 100 µM
[16]
  TGI: > 100 µM
[17]
  TGI: > 100 µM
[19]
  TGI: > 100 µM
[20]
  TGI: > 100 µM
[21]
  TGI: > 100 µM
[22]
  TGI: > 100 µM
[23]
  TGI: > 100 µM
[24]
  TGI: > 100 µM
[25]
  TGI: > 100 µM
[26]
  TGI: > 100 µM
[27]
  TGI: 40.8 µM
[28]
  TGI: > 100 µM
[29]
  TGI: > 100 µM
[30]
  TGI: > 100 µM
[32]
  TGI: > 100 µM
[33]
  TGI: > 100 µM
[34]
  TGI: > 100 µM
[58]
  TGI: > 100 µM
[35]
  TGI: > 100 µM
[36]
  TGI: > 100 µM
[37]
  TGI: > 100 µM
[38]
  TGI: > 100 µM
[39]
  TGI: > 100 µM
[40]
  TGI: > 100 µM
[41]
  TGI: > 100 µM
[42]
  TGI: > 100 µM
[43]
  TGI: > 100 µM
[44]
  TGI: > 100 µM
[45]
  TGI: > 100 µM
[46]
  TGI: > 100 µM
[47]
  TGI: > 100 µM
[50]
  TGI: > 100 µM
[51]
  TGI: > 100 µM
[52]
  TGI: > 100 µM
[53]
  TGI: > 100 µM
[54]
  TGI: > 100 µM
[55]
  TGI: > 100 µM
[56]
  TGI: > 100 µM
